This is an account of results in patent publication US8710224B2, “Heterocyclic compounds as CCR2B antagonists” (AstraZeneca AB, priority 2004, dated 2014).

In the experiment the target is T1, recombinant human CCR5 receptor (Homo sapiens, UniProt P51681).
T1 construct: expressed in transfected cells; host or cells: Chinese hamster ovary (CHO) cells; membranes
T1 sequence (P51681 whole entry): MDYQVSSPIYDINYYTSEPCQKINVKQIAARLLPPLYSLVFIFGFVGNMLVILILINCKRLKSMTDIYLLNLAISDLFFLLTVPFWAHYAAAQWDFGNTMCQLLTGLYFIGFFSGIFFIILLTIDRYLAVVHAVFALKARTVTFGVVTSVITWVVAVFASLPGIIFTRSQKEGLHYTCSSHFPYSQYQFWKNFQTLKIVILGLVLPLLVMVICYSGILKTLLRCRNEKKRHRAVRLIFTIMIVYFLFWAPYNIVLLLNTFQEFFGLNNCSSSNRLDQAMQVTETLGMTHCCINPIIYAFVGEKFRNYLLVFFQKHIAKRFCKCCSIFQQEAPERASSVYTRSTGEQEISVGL
Kind of experiment: Radioligand binding assay for inhibition of the binding of MIP-1α. To be noted: displacement of 0.1 nM iodinated MIP-1α; membranes of Chinese hamster ovary cells expressing CCR5. Summed up:
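Membranes from CHO cells expressing recombinant human CCR5 were incubated with 0.1 nM iodinated MIP-1α, scintillation proximity beads and compound at various concentrations. Bound radioligand was measured by scintillation counting.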
For `CC(C1CC1)N1CCN[C@@H](C(=O)N2CCN(C(=O)Nc3ccc(Cl)c(Cl)c3)CC2)C1` (stereo partly drawn) [Example 281, 4-{[(2R)-4-(1-Cyclopropylethyl)piperazin-2-yl]carbonyl}-N-(3,4-dichlorophenyl)piperazine-1-carboxamide], the 50% inhibitory concentration (IC50) is under 10 µM.
Consider `CS(=O)(=O)c1ccc(CCCN2CCC[C@@H](CN3CCN(C(=O)Nc4ccc(C(F)(F)F)cc4)CC3)C2)cc1` [Example 326, 4-[((3R)-1-{3-[4-(Methylsulfonyl)phenyl]propyl}piperidin-3-yl)methyl]-N-[4-(trifluoromethyl)phenyl]piperazine-1-carboxamide], for which the IC50 is under 10 µM.
As for `O=C(Nc1ccc(Cl)c(Cl)c1)N1CCN(C(=O)[C@H]2CN(CCCc3ncc(F)cn3)CCN2)CC1` [Example 273, N-(3,4-dichlorophenyl)-4-({(2R)-4-[3-(5-fluoropyrimidin-2-yl)propyl]piperazin-2-yl}carbonyl)piperazine-1-carboxamide], the figure is under 10 µM.
On to `O=C(Nc1ccc(Cl)c(Cl)c1)N1CCN(C[C@H]2CCN([C@H]3CC[C@H](O)CC3)C2)CC1` [Example 232, N-(3,4-dichlorophenyl)-4-{[(3R)-1-(trans-4-hydroxycyclohexyl)pyrrolidin-3-yl]methyl}piperazine-1-carboxamide], for which the IC50 was under 10 µM.
Turning to `CC(C)N1CCO[C@@H](CN2CCN(C(=O)Nc3ccc(Cl)c(Cl)c3)CC2)C1` [Example 119, N-(3,4-dichlorophenyl)-4-{[(2S)-4-isopropylmorpholin-2-yl]methyl}piperazine-1-carboxamide], the 50% inhibitory concentration (IC50) was under 10 µM.
As for `O=C(Nc1ccc(Cl)c(Cl)c1)N1CCN(C[C@@H]2CCCN(CCC3CCOCC3)C2)CC1` [Example 203, N-(3,4-Dichlorophenyl)-4-({(3R)-1-[2-(tetrahydro-2H-pyran-4-yl)ethyl]piperidin-3-yl}methyl)piperazine-1-carboxamide], the figure is under 10 µM; as for `O=C(Nc1ccc(F)c(Cl)c1)N1CCN(C[C@@H]2CCCN(C3CC3)C2)CC1` [Example 107, N-(3-chloro-4-fluorophenyl)-4-{[(3S)-1-cyclopropylpiperidin-3-yl]methyl}piperazine-1-carboxamide], under 10 µM.
On to `O=C(Nc1ccc(Cl)c(Cl)c1)N1CCN(C[C@@H]2CCN([C@H]3CC[C@](O)(c4nccs4)CC3)C2)CC1` [Example 229, N-(3,4-dichlorophenyl)-4-({(3S)-1-[cis-4-hydroxy-4-(1,3-thiazol-2-yl)cyclohexyl]pyrrolidin-3-yl}methyl)piperazine-1-carboxamide], for which the IC50 was under 10 µM.
The value for `CCN1CCC[C@@H](C(=O)N2CCN(C(=O)Nc3ccc(Cl)c(Cl)c3)CC2)C1` [Example 90, N-(3,4-dichlorophenyl)-4-{[(3R)-1-ethylpiperidin-3-yl]carbonyl}piperazine-1-carboxamide] was under 10 µM; that for `Cc1ccc(NC(=O)N2CCN(CC3CCCN(C)C3)CC2)cc1Cl` (centres unmarked) [Example 26, N-(3-chloro-4-methylphenyl)-4-[(1-methylpiperidin-3-yl)methyl]piperazine-1-carboxamide] was under 10 µM.
As to `O=C(Nc1ccc(Cl)c(Cl)c1)N1CCN(C[C@@H]2CCCN(Cc3ccc(O)nc3)C2)CC1` [Example 257, N-(3,4-dichlorophenyl)-4-({(3R)-1-[(6-hydroxypyridin-3-yl)methyl]piperidin-3-yl}methyl)piperazine-1-carboxamide], the IC50 was under 10 µM.
The value for `CC(C)CC(C)N1CCOC(CN2CCN(C(=O)Nc3ccc(F)c(Cl)c3)CC2)C1` (stereo in doubt) [Example 259, N-(3-chloro-4-fluorophenyl)-4-({(2R)-4-[(1R)-1,3-dimethylbutyl]morpholin-2-yl}methyl)piperazine-1-carboxamide] was under 10 µM; that for `O=C(Nc1ccc(Cl)c(Cl)c1)N1CCN(C[C@@H]2CCCN(CC(c3ccccc3)c3ccccc3)C2)CC1` [Example 153, N-(3,4-Dichlorophenyl)-4-{[(3R)-1-(2,2-diphenylethyl)piperidin-3-yl]methyl}piperazine-1-carboxamide] was under 10 µM.
As for `CS(=O)(=O)c1ccc(CCCN2CCC[C@@H](CN3CCN(C(=O)Nc4ccccc4)CC3)C2)cc1` [Example 254, 4-[[(3R)-1-[3-(4-methylsulfonylphenyl)propyl]-3-piperidyl]methyl]-N-phenyl-piperazine-1-carboxamide], the figure is under 10 µM; as for `O=C(Nc1cccc(Cl)c1)N1CCN(C[C@@H]2CCCN(CCc3ccccc3)C2)CC1` [Example 180, N-(3-chlorophenyl)-4-{[(3R)-1-(2-phenylethyl)piperidin-3-yl]methyl} piperazine-1-carboxamide], under 10 µM; as for `O=C(Nc1ccc(C(F)(F)F)cc1)N1CCN(C[C@@H]2CCCN(C3CC3)C2)CC1` [Example 111, 4-{[(3S)-1-cyclopropylpiperidin-3-yl]methyl}-N-[4-(trifluoromethyl)phenyl]piperazine-1-carboxamide], under 10 µM.
Take `COCCOc1ccc(CN2CCC[C@@H](CN3CCN(C(=O)Nc4ccc(Cl)c(Cl)c4)CC3)C2)cn1` [Example 258, N-(3,4-dichlorophenyl)-4-[((3R)-1-{[6-(2-methoxyethoxy)pyridin-3-yl]methyl}piperidin-3-yl)methyl]piperazine-1-carboxamide]: the 50% inhibitory concentration (IC50) was under 10 µM.
With `O=C(Nc1ccc(Cl)c(Cl)c1)N1CCN(C[C@@H]2CCCN(Cc3ccc(Cl)nc3)C2)CC1` [Example 256, 4-({(3R)-1-[(6-chloropyridin-3-yl)methyl]piperidin-3-yl}methyl)-N-(3,4-dichlorophenyl)piperazine-1-carboxamide], the IC50 is under 10 µM.
As for `O=C(Nc1ccc(Cl)c(Cl)c1)N1CCN(C(=O)[C@H]2CN(C3CCC(O)(c4ccccn4)CC3)CCN2)CC1` (stereo partly drawn) [Example 279, N-(3,4-Dichlorophenyl)-4-{[(2R)-4-(4-hydroxy-4-pyridin-2-ylcyclohexyl)piperazin-2-yl]carbonyl}piperazine-1-carboxamide], the figure is under 10 µM; as for `O=C(Nc1ccc(Cl)c(Cl)c1)N1CCN(C[C@@H]2CCCN(C3CCC(O)CC3)C2)CC1` (stereo partly drawn) [Example 145, N-(3,4-dichlorophenyl)-4-{[(3S)-1-(4-hydroxycyclohexyl)piperidin-3-yl]methyl}piperazine-1-carboxamide], under 10 µM; as for `CC(C)(C)c1cc(NC(=O)N2CCN(C[C@@H]3CCCN(C4CC4)C3)CC2)no1` [Example 112, N-(5-tert-butylisoxazol-3-yl)-4-{[(3S)-1-cyclopropylpiperidin-3-yl]methyl}piperazine-1-carboxamide], under 10 µM.
As for `N#Cc1ccc(OCCN2CCC[C@@H](CN3CCN(C(=O)Nc4ccc(Cl)c(Cl)c4)CC3)C2)cc1` [Example 170, 4-({(3S)-1-[2-(4-Cyanophenoxy)ethyl]piperidin-3-yl}methyl)-N-(3,4-dichlorophenyl)piperazine-1-carboxamide], the figure is under 10 µM.
For `CC(C)N1CCN[C@@H](C(=O)N2CCN(C(=O)Nc3ccc(Cl)c(Cl)c3)CC2)C1` [Example 134, N-(3,4-dichlorophenyl)-4-{[(2R)-4-isopropylpiperazin-2-yl]carbonyl}piperazine-1-carboxamide], the 50% inhibitory concentration (IC50) was under 10 µM.
The value for `CCN1CCN[C@@H](C(=O)N2CCN(C(=O)Nc3ccc(Cl)c(Cl)c3)CC2)C1` [Example 133, N-(3,4-Dichlorophenyl)-4-{[(2R)-4-ethylpiperazin-2-yl]carbonyl}piperazine-1-carboxamide] was under 10 µM.
`CN1CCN[C@@H](C(=O)N2CCN(C(=O)Nc3ccc(Cl)c(Cl)c3)CC2)C1` [Example 210, N-(3,4-Dichlorophenyl)-4-{[(2R)-4-methylpiperazin-2-yl]carbonyl}piperazine-1-carboxamide]: the IC50 was under 10 µM.
For `O=C(Nc1ccc(Cl)c(Cl)c1)N1CCN(C(=O)C2CCN(C3CCC(O)(c4nccs4)CC3)C2)CC1` (stereo not drawn) [Example 148, N-(3,4-dichlorophenyl)-4-({1-[cis-4-hydroxy-4-(1,3-thiazol-2-yl)cyclohexyl]pyrrolidin-3-yl}carbonyl)piperazine-1-carboxamide], the concentration for half-maximal inhibition (IC50) was under 10 µM.
